Reference: the NIST ThermoML archive (doi:10.1021/je5004466)
Numbers after ± are expanded uncertainties.

Details: Crystal; visual observation

Normal melting temperature: 91 ± 2 °C
SMILES: C[n+]1ccn(CCOCCOCCn2cc[n+](C)c2)c1.F[P-](F)(F)(F)(F)F.F[P-](F)(F)(F)(F)F
